Measurements published in patent US12638439B2, “Method of using human spheroids for drug discovery” (AxoSim, Inc., priority 2019, dated 2026).
Entries after “also recorded” stand apart in the source; their conditions may differ. Counter-ions that a name gives are not always drawn.

Legend:
[1] = tested on: RTT spheroids; test: FLIPR spontaneous calcium oscillation assay of iPSC-derived cortical brain spheroids (SMART library screen); type: cell-based, human; details: for outcome of the SMART library screen (multivariant analysis): 298-compound SMART library on WT and RTT matured spheroids; for rescue or reversal of the RTT disease state, multi parametric plot of spheroid calcium oscillation activity / effect of the drugs on the condition (spontaneous calcium oscillations): 1 micro molar; for rescue or reversal of the RTT disease state, multi parametric plot of spheroid calcium oscillation activity: FIG. 3 and FIG. 4, compared with WT spheroids; for effect of the drugs on the condition (spontaneous calcium oscillations): WT and RTT spheroids, FIG. 4
Excerpt: In one embodiment, the present disclosure provides human induced pluripotent stem cells iPScs that are subsequently differentiated into human cortical neurons comprising neurons and astrocytes in approximately a 50:50 ratio. The ratio can be adjusted on a case by case basis depending on the particular disease of interest from 1 to 99% either neurons or astrocytes. The 3D spheroids are comprised of approximately 50:50 neurons to astrocytes ratio +1-10%. The methods of differentiating and forming 3 dimensional spheroids and functional testing with FLIPR optical techniques is described in copending patent application No. 62/532667. In the examples in this invention we use a disease model cell line which are known to carry genes responsible for Rett syndrome.
In the present disclosure both Wild Type (WT) and Rett Disease (RTT) cortical brain human tissue spheroids were prepared for the purpose of high throughput screening to identify therapeutic compounds that can modulate the brain activity in an attempt to revert or rescue the disease state back to near normal activity or homeostasis. For example, the cell lines employed (control or “WT” and disease “RTT”) may be from a family without and with the Rett disease phenotype.
The method disclosed herein may, in one embodiment, include manufacturing 3D spheroids in 384 well round bottom microtiter plates, see, e.g. U.S. patent application No. 62/532,667, the disclosure of which is incorporated herein. […] In the present disclosure, 6 to 14 weeks of maturation is a maturation range for testing, e.g., 8 to 10 weeks of maturation.
The oscillations being measured are from calcium flux moving into and out of the cells at ambient conditions. The oscillations are spontaneous and not generated by an external source. The measurements are conducted in real time and the data captured by using a technique called FLIPR that is well known in the prior art. […] When analyzing the data, it is important to understand that multiple factors contribute to the signal being recorded by the FLIPR software. Therefore, in the present disclosure 7 parameters are recorded to determine if the data generated from the spheroid is meaningful. The parameters measured are, e.g., peak count, peak width, average peak spacing, peak spacing standard deviation, peak decay time, peak rise time, and/or peak amplitude.
In the present disclosure, the SMART library that contained 298 compounds was used on both WT and RTT matured spheroids over several weeks and the FLIPR data collected and analyzed for potential therapeutic efficacy. The SMART (Selected Molecular Agents for Rett Therapy) library of compounds is well vetted by modern day bioinformatics methods, tightly focused on Rett syndrome and its biological causes. The library is currently housed at the University of Illinois-Chicago. […] With the goals in mind to save both time and resources and accelerate drug discovery for Rett syndrome, the compounds in the SMART library are readily available to investigators working on Rett syndrome research.

[2] = tested on: humans; details: 1950s and 1960s; cited from earlier work
[3] = tested on: pregnant rats; details: given to pregnant rats; cited from earlier work
[4] = tested on: pregnant mice; details: given to pregnant mice; cited from earlier work

Structure (SMILES)	outcome of the SMART library screen (multivariant analysis) [1]	also measured
CC(=O)Nc1nnc(S(N)(=O)=O)s1 [Acetazolamide]	therapeutics of interest	
CNCC[C@@H](Oc1ccccc1C)c1ccccc1 [Atomoxetine, Atomoxetine (Tomoxetine)]	therapeutics of interest	
CC(C)n1c(=O)n(C(=O)NC2CC3CCC(C2)N3C)c2ccccc21 (stereo not shown) [BIMU-8]	therapeutics of interest	rescue or reversal of the RTT disease state, multi parametric plot of spheroid calcium oscillation activity ([1]; RTT spheroids): significant effect on reversing or rescuing the RTT disease state; rescue of spontaneous calcium peak frequency and amplitude behavior to the WT state ([1]; RTT spheroids, 2-week exposure time, FIG. 5): rescuing the oscillation activity back to WT normal behavior; also recorded: nearly rescued the WT state
NCC(CC(=O)O)c1ccc(Cl)cc1 (stereo not shown) [Baclofen]	therapeutics of interest	
OC(CCN1CCCCC1)(c1ccccc1)C1CCCCC1 (stereo not shown) [Benzhexol Hydrochloride]	therapeutics of interest	
CN(C)CCCOc1nn(Cc2ccccc2)c2ccccc12.Cl [Benzydiamine Hydrochloride]	therapeutics of interest	
OC(CCN1CCCCC1)(c1ccccc1)C1CC2C=CC1C2 (stereo not shown) [Biperiden]	therapeutics of interest	
O=C1Nc2cc(Br)ccc2/C1=C1/Nc2ccccc2/C1=N\O [Bromoindirubin-3-oxime]	therapeutics of interest	
COc1cc(N)c(Cl)cc1C(=O)NC1CCN(Cc2ccccc2)CC1 [Clebopride Mal ate]	therapeutics of interest	
CN1CCC[C@@H]1Cc1c[nH]c2ccc(CCS(=O)(=O)c3ccccc3)cc12 [Eletriptan HBr Salt]	therapeutics of interest	
Oc1cc(O)c2c(c1)O[C@H](c1cc(O)c(O)c(O)c1)[C@H](O)C2 [Epigallocatechin]		rescue or reversal of the RTT disease state, multi parametric plot of spheroid calcium oscillation activity ([1]; RTT spheroids): no effect to rescue or reverse the spontaneous calcium oscillations; effect of the drugs on the condition (spontaneous calcium oscillations) [1]: made the condition worse
CC1Nc2ccc(Cl)cc2S(=O)(=O)N1 (stereo not shown) [IDRA-21]	therapeutics of interest	
COc1cc(C(C)=O)ccc1OCCCN1CCC(c2noc3cc(F)ccc23)CC1 [Iloperidone]	therapeutics of interest	
Cc1nccn1CC1CCc2c(c3ccccc3n2C)C1=O (stereo not shown) [Ondansetron]	therapeutics of interest	
CC(C)COc1ccc(CNC(=O)N(Cc2ccc(F)cc2)C2CCN(C)CC2)cc1 [Pinmavanserin]	therapeutics of interest	
O=c1n(CCCN2CCN(c3cccc(Cl)c3)CC2)nc2ccccn12 [Trazodone, Trazodone (Beneficat)]	therapeutics of interest	
CCOC(=O)C1=C[C@]2(CC)CCCN3CCc4c(n1c1ccccc41)[C@@H]32 [Vinpocetine]	therapeutics of interest	
O=C(CCCCCCC(=O)Nc1ccccc1)NO [Vorinostat]		rescue or reversal of the RTT disease state, multi parametric plot of spheroid calcium oscillation activity ([1]; RTT spheroids): no effect to rescue or reverse the spontaneous calcium oscillations; effect of the drugs on the condition (spontaneous calcium oscillations) [1]: made the condition worse
O=C1CCC(N2C(=O)c3ccccc3C2=O)C(=O)N1 (stereo not shown) [thalidomide]		birth defects [2]: caused an international epidemic of birth defects; birth defects [3]: does not cause birth defects; birth defects [4]: does not cause birth defects
